Results from US20150320782A1, “Methods, compositions and kits for treating, modulating, or preventing ocular angiogenesis or fibrosis in a subject using a galectin protein inhibitor” (TUFTS UNIVERSITY, priority 2012, published 2015).
“And” between values parts separate entries of the source, which are not always exact repeats. Equal values may be shown once. “Also recorded” adds a separate entry of the source. Blank lines part the entries; values can stand above or below the compound they belong to.

Key:
[1] = system: TM cells on galectin-8 coated wells; details: cited from earlier work
[2] = system: endothelial cell (EC) spheroids (HUVEC); assay type: cell-based
Method: Methyl cellulose powder (6 g) was autoclaved with stirring using a magnetic bar in a 500 mL bottle. The powder was dissolved in 250 mL of DMEM medium at 60° C. with stirring for 30 minutes, and then 250 mL DMEM at room temperature was added and the mixture was stirred for two hours at 4° C. The resulting mixture was then aliquoted into 50 mL cylindrical tubes and centrifuged (6170 revolutions per minute) for two hours at room temperature to remove debris interfering with spheroid formation. The clear supernatant was collected from the centrifuged tubes.
Endothelial cells (EC) were cultured in containers and were detached from the container surfaces with 0.25% trypsin. The pH of the trypsinized EC cells was neutralized with DMEM. Spheroid solution was prepared in tubes by combining 3.75 mL of methylcellulose, 1.75 mL FBS, 17.5 μl pen/strep, and […] endothelial cells, and adding DMEM to bring the total volume to 17.5 mL. The spheroid solution was mixed by inverting tubes, and 150 μl aliquots were added to each well of a 96 well plate using a multichannel pippettor and wide mouth tips. Spheroids were settled and were incubated for 24 hours at 37° C. in 5% CO2.
Each 96 well plate yielded spheroids sufficient for four wells of a 24 well plate. The collagen solution was prepared using 2.3 mL (3.9 mg/mL) collagen type 1, 400 μl 10×M199 medium, 200 μl FBS, and 1.1 mL water. The collagen solution was neutralized with sodium hydroxide using a color pH indicator. The methyl cellulose solution (4.5 mL) was combined with 1.5 mL DMEM and warmed to 37° C. in a water bath. EC spheroids were collected using a wide mouth pipette and centrifuged (700 revolutions per minutes) for three minutes at room temperature.
The resulting supernatant was removed, and two mL of methyl cellulose solution were added to the pellet. Neutralized collagen solution (2 mL) was added to the mixture, and mixed using a pipette carefully to avoid bubble formation.
An aliquot (1 mL) of the mixed collagen solution was added to four wells of a 24 well plate, and the plate was incubated at 37 C 5% CO2 for 30 minutes to polymerize the collagen. […] Control collagen samples were treated with 100 μl of EBM-2 and 25 ng/mL VEGF in EBM-2.
See Meyer et al. 2003 J Biol Chem. 278(18): 16347-55. Representative images of the incubated samples were obtained and the cumulative length in arbitrary units of the endothelial cell sprouts was determined by ImageJ processing and analysis procedures. The data was analyzed by Student's t-test (Table 2).

[3] = system: mouse corneas; assay: Silver nitrate cautery-induced corneal neovascularization, TD139; assay type: in vivo; details: TD139 325 ng sub-conjunctival every other day, 50 μM eye drops daily; day five after cautery; control about 40%
Text: FIG. 11A is a drawing of an experimental regimen for drug administration in murine subjects strain C57B/6L. […] Silver nitrate was applied on day zero to cauterize the eyes of the subjects. Mice were sacrificed on day five, and flat mounts of corneas were stained with anti-CD31 to visualize blood vessels. Data shown in FIG. 11 B-C were from subjects treated as described in FIG. 11A.
Neovascularization in the eye was induced in mouse corneas by cauterization using silver nitrate. […] Control subjects were sub-conjunctivally injected with vehicle only (PBS containing 0.5% DMSO only).
After five days of either sub-conjunctival injection treatment or eye drop treatment, subjects were sacrificed, and flat mounts of corneas were excised, photographed, and stained with anti-CD31 to visualize blood vessels (FIG. 11B, magnification is ×100). The density of blood vessels covering the whole cornea was quantified by ImageJ and was analyzed with Student's t test (FIG. 11C).

[4] = biological target: recombinant galectin-1 (Homo sapiens, UniProt P09382); assay: Microtiter plate binding assay with galectin receptor-HRP conjugate, galectin-1; details: plate coated with recombinant galectin-1
[5] = biological target: recombinant galectin-3 (Homo sapiens, UniProt P17931); assay: Microtiter plate binding assay with galectin receptor-HRP conjugate, galectin-3; details: plate coated with recombinant galectin-3
Method: Microtiter plate wells were coated with recombinant galectin-1 or galectin-3 (10 μg/ml, 50 μl/well), and then washed with wash solutions containing PBS and detergent. The wells were blocked with BSA, and washed with wash solution/buffer. […] Control wells included PBS only. An amount of galectin receptor-HRP conjugate (100 μL/well, 1 mg/mL) specific for either galectin-1 or galectin-3 was added to the respective wells. The wells were incubated for one hour and then washed with buffer at room temperature. The horse-radish peroxidase enzyme reaction was performed using a TMB-peroxidase substrate kit (BioRad Inc.). The reaction was stopped after one hour by addition of 1N sulfuric acid (100 μL/well) and the optical density was read at 450 nm.

[6] = system: HUVEC spheroids; assay: VEGF-A-induced HUVEC spheroid sprouting in type I collagen gels; assay type: cell-based, human; details: VEGF-A 100 ng/ml; TD139 0.1, 1, 5 and 10 μM; 24 hours
Method: HUVEC spheroids were prepared and seeded into type I collagen gels. […] Control collagen samples were treated with 100 μl of EBM-2 and 25 ng/mL VEGF in EBM-2. […] After a 24 hour incubation, spheroids were stained with calcein AM dye and photographed by a fluorescent microscope. Cumulative sprout lengths for HUVEC in gels were quantified by ImageJ.
HUVEC spheroids were prepared as described in examples herein, and the spheroids were seeded into type I collagen gels. […] Control spheroids were treated with neither VEGF-A nor TD139. After 24 hours of treatment, spheroids were stained with calcein AM, a cell-permeant dye that indicates cell viability in eukaryotic cells (Invitrogen Inc.), and the spheroids were photographed by a fluorescent microscope. Cumulative sprout lengths were quantified by ImageJ.

[7] = system: HUVEC; assay: VEGF-A-induced endothelial cell migration (chemotaxis chamber); assay type: cell-based, human; details: three hours
Method: FIG. 13B is a bar graph showing migration distance (migration index, ordinate) of HUVEC cells treated with (abscissa) […] as in FIG. 13A. HUVECs were serum starved overnight, detached with proteolytic and collagenolytic enzyme product Accutase™ (Millipore Inc.), resuspended in 1% FBS/M199 and then added to the upper chamber of a migration testing system. […] After three hours of incubation, HUVECs that migrated to lower side of the membrane were counted.
HUVEC were incubated without serum overnight, detached with Accutase, re-suspended in 1% FBS/M199 and added in an upper chamber separated from a bottom chamber by a membrane. […] Control HUVEC were treated with neither VEGF-A nor TD139.
Data were plotted as mean±SEM and analyzed with one-way ANOVA. *P<0.05 vs control; ***P<0.001 vs control; ^###P<0.001 vs VEGF-A.

[8] = system: HUVEC; assay: HUVEC viability by calcein AM and WST-1; assay type: cell-based, human; details: three hours treatment; TD139 5 μM, Triton X-100 0.1%
Method: The cell viabilities of the treated HUVEC and control HUVEC were determined with each of calcein AM and WST-1, two systems used to determine cell viability. Calcein AM was added to a group of treated HUVEC, which were incubated for 30 minutes (FIG. 14A). Another group of treated HUVEC were incubated for two hours with WST-1, a tetrazolium salt used for determining cell proliferation and is an indicator or cell viability (FIG. 14B). Data are plotted with mean±SEM and analyzed with one-way ANOVA. ***P<0.001 vs control. Fluorescence emission was detected by a spectrophotometer for each treated group contacted with either calcein AM or WST-1.

[9] = system: VEGFR2; assay: VEGFR2 expression in HUVEC by western blot; assay type: cell-based, human; details: 10 μM TD139, six hours
Method: Cell lysates were analyzed by electrophoresis in 4-20% SDS-PAGE gels. The gels were transferred to western blot membranes, and were probed with anti-VEGFR-2 antibody (FIG. 15 top row) or β-actin antibody (FIG. 15 bottom row).
Control HUVEC were not treated with TD139. Cell lysates were analyzed using gel electrophoresis (4-20% SDS-PAGE gels), and the membrane blots were probed with either anti-VEGFR-2 antibodies or β-actin antibodies.

[10] = system: mouse corneas; assay: Alkali (sodium hydroxide) model of corneal fibrosis; details: vs PBS
Method: C57BJ/6 mice were anesthetized by intraperiteoneal injection of a mixture of ketamine and xylazine. Corneas of the subjects were topically anesthetized by applying an eye drop of proparacain. 1.5 μl drop of 0.15M sodium hydroxide was applied for one minute to the central cornea of each subject. Each eye was immediately washed extensively in PBS, and corneal epithelium and limbal epithelium were gently removed with an ALGEBRUSH™ optical device (Storz Ophthalmic Instruments, St. Louis, Mo.). Each cornea was covered with an antibiotic ointment. […] Control subjects were injected subconjunctivally with control vehicle PBS. Corneas were visualized and analyzed for opacity, and protein markers for fibrosis were quantified as described below.
Mice were sacrificed at day 14 post surgery using a mixture of ketamine and xylazine. Mouse corneas were dissected and lysed in ice-cold lysis buffer containing 5 mM NaF, 1 mM PMSF, 1 mM DTT, 20 mM HEPES, 1 mM EDTA, 400 mM NaCl, 1 mM EGTA, 0.1% NP-40, and a protease inhibitor cocktail product (Roche). Aliquots of corneal protein (20 μg) were loaded to each lane of a gel and transferred onto a nitrocellulose membrane. Blots were probed overnight at 4° C. with either a rabbit antibody specific for α-smooth muscle actin (10,000 dilution; Abcam Inc., Cambridge, England), or with a control antibody specific for β-actin. The blots were extensively washed and were incubated with goat anti rabbit IRDye 800CW antibody (1:10,000 dilution; LI-Cor Biosciences; Lincoln Nebr.). Membranes were scanned and quantified using an Odessey imaging system (Li-Cor Biosciences).
C57BJ/6 mice were anesthetized by intraperiteoneal injection of ketamine and xylazine mixture. […]
Subjects were sacrificed on day fourteen after alkalisurgery using a mixture of ketamine and xylazine. […] The membranes were washed and incubated with goat anti rabbit IRDye 800CW antibody (1:10,000; Li-Cor Inc.), the membranes were scanned and quantified with Odessey imaging system (Li-Cor Inc.).
SMA (smooth muscle actin) is a marker of corneal fibrosis. […] Opacity of the eye was scored on day 7 and day 14. […]

[11] = system: mouse retinas; assay: Alkali (sodium hydroxide) model, retinal gliosis (GFAP western blot); details: 10 μl of 50 mM TD139 subconjunctival daily for 14 days; vs PBS
Method: Corneas of murine subjects were contacted with sodium hydroxide. […] Control subjects were injected subconjunctively with PBS control vehicle only. Subjects were sacrificed by ketamine and xylazine on day 14 post surgery. […] Aliquots of retinal protein (30 μg) from lysates, or a control β-actin material were loaded to gels and transferred onto nitrocellulose membranes. Blots were probed overnight at 4° C. with rabbit anti mouse antibody specific for glial fibrillary acidic protein (GFAP; 50,000 dilution; Abcam Inc.; FIG. 18 top row), or with a control antibody specific for β-actin. […] Control blots were probed with rabbit antibody specific for β-actin (FIG. 18 bottom row). The probes were washed and were incubated with goat anti rabbit IRDye 800CW antibody (1:10,000 dilution; LI-Cor Biosciences). Membranes were scanned and quantified using an Odessey imaging system (Li-Cor Biosciences).
C57BJ/6 mice were anesthetized by intraperiteoneal injection of ketamine and xylazine mixture. Corneas were topically anesthetized by application of proparacain eye drop. […]
Subjects were sacrificed on day fourteen after alkalisurgery using a mixture of ketamine and xylazine. […] The membranes were washed and incubated with goat anti rabbit IRDye 800CW antibody (1:10,000; Li-Cor Inc.), the membranes were scanned and quantified with Odessey imaging system (Li-Cor Inc.). […]

[12] = biological target: T1, galectin-1 / VEGFR-2 (Homo sapiens, UniProt P09382); assay: HUVEC lysate VEGFR-2 pull-down on galectin-1 agarose beads; assay type: binding; details: 0.1 M saccharide
T1 construct: host or cells: VEGFR-2: endogenous, HUVEC lysate
Text: FIG. 12 is a photomicrograph of a western blot showing that galectin-1 and galectin-3 interacted with VEGFR-2. […] Control samples contained only HUVEC lysates or beads. Bound material was eluted with Laemmli sample buffer, added to 4-20% SDS-PAGE gels, and electrophoresed. Gels were transferred onto membrane blots, which was then probed with anti-VEGFR-2 antibody. VEGFR-2 antibody was observed bound to the HUVEC lysate control and not to the bead only control. […] Thus, the interaction between VEGFR-2 and galectin-1 and galectin-3 was observed herein to be carbohydrate-dependent.
Control HUVEC lysates were incubated with galectin-1 agarose beads or galectin-3 agarose beads only. The beads were rinsed to remove unbound material.
HUVEC lysate material bound to the beads was eluted with the Laemmli sample buffer and was analyzed using gel electrophoresis (4-20% SDS-PAGE gels). Following blocking, membrane blots were probed using anti-VEGFR-2 antibody (FIG. 12). […] Further, the VEGFR2 HUVEC lysate binding to the beads was […] for beads treated with sucrose, a noncompeting saccharide.

[13] = biological target: T2, galectin-3 / VEGFR-2 (Homo sapiens, UniProt P17931); assay: HUVEC lysate VEGFR-2 pull-down on galectin-3 agarose beads; assay type: binding; details: 0.1 M saccharide
T2 construct: host or cells: VEGFR-2: endogenous, HUVEC lysate
T2 sequence (P17931 whole entry): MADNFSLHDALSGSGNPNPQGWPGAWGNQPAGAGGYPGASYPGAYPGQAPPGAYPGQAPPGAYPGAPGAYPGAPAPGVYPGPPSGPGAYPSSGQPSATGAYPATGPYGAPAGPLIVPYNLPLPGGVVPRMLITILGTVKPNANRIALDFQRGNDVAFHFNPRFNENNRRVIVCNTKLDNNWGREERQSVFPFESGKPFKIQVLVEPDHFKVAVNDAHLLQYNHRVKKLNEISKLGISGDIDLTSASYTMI

T1 sequence (P09382 whole entry): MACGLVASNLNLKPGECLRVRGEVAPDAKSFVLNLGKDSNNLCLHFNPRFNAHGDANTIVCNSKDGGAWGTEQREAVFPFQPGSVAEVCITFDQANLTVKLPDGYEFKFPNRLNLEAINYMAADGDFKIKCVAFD
Chain of recombinant galectin-1 (P09382 whole entry): as above
Chain of recombinant galectin-3 (P17931 whole entry): as the sequence (P17931 whole entry) above

Compound: CC(=O)N[C@H]1[C@H]([C@H](O)[C@H](O)CO)O[C@@](O[C@H]2[C@@H](O)[C@@H](CO)O[C@@H](O[C@H]3[C@H](O)[C@@H](NC(C)=O)C(O)O[C@@H]3CO)[C@@H]2O)(C(=O)O)C[C@@H]1O (stereo partly shown) [NeuAca2-3Galβ1-4GlcNAc]
Spreading of TM cells on galectin-8 protein coated wells [1]: inhibited

Compound: CC(=O)N[C@H]1[C@H]([C@H](O)[C@H](O)CO)O[C@](OC[C@H]2O[C@@H](O[C@H]3[C@H](O)[C@@H](NC(C)=O)C(O)O[C@@H]3CO)[C@H](O)[C@@H](O)[C@H]2O)(C(=O)O)C[C@@H]1O (stereo partly shown) [NeuAca2-6Galβ1-4GlcNAc]
Spreading of TM cells on galectin-8 protein coated wells [1]: no effect

Binding to galectin-1 [4]: specifically bound
Binding to galectin-3 [5]: specifically bound
Compound: OC[C@H]1O[C@@H](S[C@@H]2O[C@H](CO)[C@H](O)[C@H](n3cc(-c4cccc(F)c4)nn3)[C@H]2O)[C@H](O)[C@@H](n2cc(-c3cccc(F)c3)nn2)[C@H]1O [TD139, bis-{3-deoxy-3-[4-(3-fluorophenyl)-1H-1,2,3-triazol-1-yl]-β-D-galactopyranosyl}sulfane]
Decrease of VEGF-mediated EC sprouting ([2]; 10 μM TD139, compared to VEGF alone): about one-third
Reduction of the extent of VEGF-mediated sprouting ([2]; 50 μM TD139): about two-thirds
Density of blood vessels covering the cornea (percent area) [3]: 28%
VEGF-A-induced sprouting (cumulative sprout length) [6]: significantly inhibited
VEGF-A-induced chemotaxis and migration ([7]; TD139 1 to 5000 nM, dose-dependent): significantly abrogated
Concentration as low as which VEGF-A-induced chemotaxis was significantly abrogated ([7]; VEGF-A 100 ng/mL): 1 nM
Calcein AM fluorescence (cell viability) [8]: comparable calcein AM fluorescence
WST-1 signal (cell viability) [8]: comparable cell viability
Total protein expression of VEGFR2 [9]: little or no effect
Corneal opacity (score 0-4) ([10]; 10 μl of 50 mM TD139 subconjunctival daily for 14 days after alkali): area of opacity less than about the site of the pupil; also recorded: reduced corneal opacity
Reduction of α-SMA (smooth muscle actin) expression in corneal lysates ([10]; 10 μl of 50 mM TD139 subconjunctival daily for 14 days): 30%
GFAP expression in retinal lysates [11]: reduced expression of GFAP

Inhibition of VEGFR-2 binding to galectin-1 beads [12]: inhibited
Compound: OC[C@H]1O[C@@H](O[C@H]2[C@H](O)[C@@H](O)C(O)O[C@@H]2CO)[C@H](O)[C@@H](O)[C@H]1O (stereo partly shown) [lactose]
Adhesion of TM cells to galectin-8 coated wells [1]: inhibited or prevented

Inhibition of VEGFR-2 binding to galectin-1 beads [12]: not inhibited
Inhibition of VEGFR-2 binding to galectin-3 beads [13]: not inhibited
Compound: OC[C@H]1O[C@@](CO)(O[C@H]2O[C@H](CO)[C@@H](O)[C@H](O)[C@H]2O)[C@@H](O)[C@@H]1O [sucrose]
Adhesion of TM cells to galectin-8 coated wells [1]: not inhibited

Compound: Triton™ X-100
Calcein AM fluorescence (cell viability) [8]: reduced fluorescence
WST-1 signal (cell viability) [8]: reduced WST-1 fluorescence

Compound: VEGF
Fold change in capillary sprouting of EC over control cells not contracted with VEGF and inhibitor ([2]; VEGF 25 ng/mL only): 650 fold and 921 fold and 604 fold and 800 fold
Formation of endothelial cell sprouts compared to medium only ([2]; VEGF 25 ng/mL only): four-fold
